Key:
[1] = system: A-to-I RNA editing reporter (ADAR) in A375; test: A-to-I PepTile (REPTILE) screen: A-to-I editing of dsRNA hairpin reporter by NGS; type: cell-based, human; conditions: for % A-to-I editing (IFNα): IFNα 6000 U/ml for 48 hours; for % A-to-I editing (Basal): no treatment
From the text: (§1) FIGS. 12A-12D. A-to-I PepTile screen. (A) Composition of A-to-I PepTile linrary screen, and schematic description of the lentiviral expression vector. (B) Experimental workflow. A375 cells were transduced at low MOI, and then treated or not with IFNα for 48 hrs. RNA was extracted and Peptide_ADARreporter RNA species were amplified and sequenced by NGS. (C) Dot plot of A-to-I PepTile library effect on A-to-I editing with or without IFNα treatment. Red line is the mean A-to-I editing of all the 8088 peptides (>100 read counts) no treatment: 25.75% IFNα: 37.6%. (D) Dot plot of A-to-I PepTile library fitness effect upon IFNα for 48 hrs.
FIGS. 17A-17F show A-to-I RNA Editing PiTile (REPTILE) screen in A375. (A) A-to-I RNA Editing PiTile (REPTILE) library design consist of fragmentation of all known ADAR1, ADAR2 interactors and all human double stranded RNA-binding protein into 40 amino acid long peptide. This library was then cloned into a lentivirus vector that also encode a DNA-encoded RNA loop reporter (A-to-I Rep) that is edited by ADAR proteins in cells at the RNA level. When the construct is expressed, the RNA loop gets edited on a single Adenosine, while the 40-mer peptide get expressed at the protein level. Then we can measure the impact of the peptide expression on the editing rate of the RNA loop reporter by sequencing (NGS and Sanger). (B) Experimental workflow of REPTILE screen in A375 cell line. Cells were transduced with the REPTILE library, and then treated for 48 hours with IFNα. Following the treatment, RNA was harvested, converted into cDNA and amplicon library containing peptide Identity (barcode) linked to the RNA loop reporter were prepared for NGS. (C) Result of the A375 REPTILE screen in the no treatment condition. Each dot represents a unique peptide that is associated with an A-to-I editing rate that was measured on the RNA loop. (D) Result of the A375 REPTILE screen in the IFNα condition. Each dot represents a unique peptide that is associated with an A-to-I editing rate that was measured on the RNA loop. Red line represent the A-to-I editing mean, Dash blue line represent 2 times the standard deviation of the % A-to-I editing across all the datasets. This cutoff was used to defined peptides hits that modulate RNA A-to-I editing. (E) Peptide A-to-I Inhibitor Hits intersection between no treatment (% A-to-I editing<15%) and IFNα (% A-to-I editing<27%) conditions. (F) Peptide A-to-I Enhancers Hits intersection between no treatment (% A-to-I editing>36%) and IFNα (% A-to-I editing>47%) conditions.
Provided herein is a screening methodology to measure the effect of small peptide on A-to-I RNA editing in situ and screen thousands of peptides in a single experiment. First, a library of peptides with the potential of impairing A-to-I editing was designed and built. ADAR enzymes edit RNA only on double-stranded RNA structures and via ADAR's double stranded RNA-Binding Domain (dsRBD). […] The A-to-I PepTile library is composed of 19 Human proteins having dsRBD and 34 known protein-protein interactors of ADAR1/2. All these proteins were tiled into 40-mer peptides every 4 amino acids (FIG. 12A). To measure A-to-I editing, a biosensor consisting of a 71 bp dsRNA hairpin structure that gets A-to-I edited at a rate of 25% in A375 melanoma cells, and ~37% upon IFNα treatment was used. This A-to-I editing reporter is fused with DNA sequence encoding for a peptide from the A-to-I PepTile library. The A-to-I PepTile plasmid pool (10304 elements) was used to produced lentiviruses and transduced A375 cells at a low multiplicity of infection (MOI) (FIG. 12B). A part of the infected cells was treated with IFNα at 6000 U/ml for 48 hours, and then bulk RNA of the basal and treated condition was harvested. RNA was then retrotranscribed into cDNA and sequenced by Next-Generation Sequencing (NGS). […]

A375 cells = test: A-to-I PepTile screen: fitness effect upon IFNα (PepTile abundance untreated vs treated); type: cell-based, human
From the text: as §1
Provided herein is a screening methodology to measure the effect of small peptide on A-to-I RNA editing in situ and screen thousands of peptides in a single experiment. First, a library of peptides with the potential of impairing A-to-I editing was designed and built. ADAR enzymes edit RNA only on double-stranded RNA structures and via ADAR's double stranded RNA-Binding Domain (dsRBD). […] The A-to-I PepTile library is composed of 19 Human proteins having dsRBD and 34 known protein-protein interactors of ADAR1/2. All these proteins were tiled into 40-mer peptides every 4 amino acids (FIG. 12A). To measure A-to-I editing, a biosensor consisting of a 71 bp dsRNA hairpin structure that gets A-to-I edited at a rate of 25% in A375 melanoma cells, and ~37% upon IFNα treatment was used. This A-to-I editing reporter is fused with DNA sequence encoding for a peptide from the A-to-I PepTile library. The A-to-I PepTile plasmid pool (10304 elements) was used to produced lentiviruses and transduced A375 cells at a low multiplicity of infection (MOI) (FIG. 12B). A part of the infected cells was treated with IFNα at 6000 U/ml for 48 hours, and then bulk RNA of the basal and treated condition was harvested. RNA was then retrotranscribed into cDNA and sequenced by Next-Generation Sequencing (NGS). With the sequencing data, the A-to-I editing percentage of the RNA reporter for each PepTile is calculated since both elements are encoded on the same transcript. Moreover, with this screen one can also measure the abundance of the PepTiles between the untreated and treated conditions and determine Fitness score associated to every PepTile. To ensure a robust and more accurate A-to-I editing % estimation a cut-off of 100 read counts was set for each PepTile. […] SEQ ID NOs: 2125-2147 are A-to-I peptide inhibitors and SEQ ID NOs: 2148-2210 are A-to-I activators. In addition, 117 PepTiles were identified that either synergize (SEQ ID NOs: 2211-2243) or protect (SEQ ID NOs: 2244-2327) to IFNα-induced cell death (FIG. 12D and Table 5). These PepTiles are potential new therapeutic agents that can modulate the Interferon pathway. They may be beneficial in treating inflammatory conditions and may also enhance the effectiveness of cancer immunotherapy through synergistic effects.

[2] = IFNα 6000 U/ml for 48 hours vs untreated
[3] = A375, PepTile abundance upon IFNα treatment, negative = synthetic lethal, positive = protector

Sequence	% A-to-I editing (IFNα) [1] [%]	% A-to-I editing (Basal) [1] [%]	Fitness Score IFNα (A375 cells; [2])	Fitness Score IFNα (A375 cells; [3])
MVSSAAGPLGPGDAVRRVLECVATGTLLTDGPGLQDPCERD [ZFR2_206]	55.48	44.05	0.81	–
MAPVAAHTVTAAYAPAAATVAVARPAPVAVAAAATAAAYGG [ZFR_18]	49.47	37.25	1.04	–
MVVLLCRQPCASQSSLKDINWDSSQWQPLIQDRCFLSWLVK [UPF1_52]	47.63	50.56	-0.80	–
MQVTISVTSPLMREDPSTDPGVEEPQADAGDVLSPKKCLES [ZFR2_183]	54.85	40.13	-0.70	–
MECMHKLGNSCEFRLLSKEGPAHEPKFQYCVAVGAQTFPSV [ADAR_156]	20.83	13.60	0.35	–
MRFLYSELMKYNSQTAKDSIFEPAKGGEKLQIKKTVSFHLY [ADAR_231]	65.21	56.37	0.14	–
MAVRRVLECVATGTLLTDGPGLQDPCERDQTDALEPMTLQE [ZFR2_209]	50.31	39.66	0.22	–
MGFRGNSGGDYRGPSGGYRGSGGFQRGGGRGAYGTGYFGQG [DHX9_307]	47.59	40.04	1.50	–
MKEHMDAINHDTKELEKMTNRQGMLLKKKEECMKKIRELGS [SMC3_228]	23.22	13.27	-3.54	-3.54
MVYQAPLSLATVPHQALGRTQSSPAAPGGMKSPPDQPVKHL [HDAC5_161]	48.17	43.88	-0.12	–
MPYERQQFESVEWYNNRNQDNYVSWSDSEDDDEDEEIEEKE [DICER1_98]	52.37	37.74	-1.79	–
MVISTFKKRAVEITGAGPGASSVCNSAPGSGPSSPNSSHST [HDAC5_73]	63.84	49.71	0.74	–
MCYYVFGDLSGGCESYLVNLSLNDNDGSSGASDQDTLAPLP [DVL2_126]	54.28	43.60	0.54	–
MSKVTRAQIEDTLRRDHQLREAPDTAEKAKSHLEVPLEENV [CCDC124_24]	13.63	12.50	-1.31	–
MNKSEISLVFEIALKRNMPVSFEVIKESGPPHMKSFVTRVS [STAU2_44]	23.54	6.78	0.07	–
MPLRGWPLELLCEKSIGTANRPMGAGEALRRVLECLASGIV [ILF3_62]	55.34	39.78	-0.73	–
METVSSNSSNNTGNSTTETSSTLEVRTQGPILTASGKNPVM [STRBP_120]	22.73	10.91	0.07	–
MSQHRKKEADSVYGEWVPVEKNGEENKDDDNVFSSNLPSEP [SON_53]	25.27	14.38	1.03	–
MFKKRAVEITGAGPGASSVCNSAPGSGPSSPNSSHSTIAEN [HDAC5_74]	55.72	38.94	0.29	–
MVMNLLESAGFSRSNPYYIVKQGKINQMATAPDSQRLKLLR [SMC3_31]	54.66	41.67	1.72	–
MEPAKGGEKLQIKKTVSFHLYISTAPCGDGALFDKSCSDRA [ADAR_236]	55.48	39.57	-1.07	–
MWDSIIQQATKNVDILKDPETVKQLGSILKTNVRACKAVGH [XPO1_167]	25.96	11.93	1.42	–
MCLSSHFQELSIYQDQEQRILKFLEELGEGKATTAHDLSGK [ADAR_32]	48.60	38.66	-0.47	–
MQAHLAMGGGPGPGTDFTSDQADFPDTLFQEFEPPAPRPGL [ADARB2_50]	51.37	40.11	0.65	–
MRRDHQLREAPDTAEKAKSHLEVPLEENVNRRVLEEGSVEA [CCDC124_27]	24.35	12.18	1.71	–
MSGTSYSGYEAAVYSAASSYYQQQQQQQKQAAAAAAAAAAT [ZFR_66]	49.01	40.81	2.04	2.04
MIIYDEYMMDTVISLLTGLSDSQVRAFRHTSTLAAMKLMTA [STAG1_49]	48.18	44.91	0.55	–
MGPGDAVRRVLECVATGTLLTDGPGLQDPCERDQTDALEPM [ZFR2_208]	51.37	37.66	0.67	–
MFSSRGINFRTRHLMQDLRMLMPHSKADTKMDRKDKLFVIN [BRIX1_17]	47.02	38.66	1.21	–
MQQGTPGMALGSMGSVVKSEASSSPPVVTSSSHSRAPCQAG [SOX2_58]	53.74	41.35	-0.36	–

Source: patent US20260285924A1, “PEPTIDE THERAPEUTICS” (priority 2023, published 2026)
